Reference: patent US20230103631A1, “PEPTIDES AS SELECTIVE GIP RECEPTOR AGONISTS” (Sanofi, priority 2020, published 2023)
*1 amine or outer side, *2 acyl side, *3 side chain or, on linkers, in order; H or OH if unused. Where a SMILES comes first, the peptide text is derived from it. Side-chain parts run from the residue outwards. [ ]: non-standard residue; d: D form. The star is where a group is joined. C18 diacid = O=C(O)CCCCCCCCCCCCCCCCC(=O)*; γGlu = O=C(O)[C@H](CCC(=O)[*:2])N[*:1]; NMeY = CN[C@@H](Cc1ccc(O)cc1)C(=O)O; AEEA = NCCOCCOCC(=O)O; Aib = CC(C)(N)C(=O)O; Sar = CNCC(=O)O

Key:
[1] = ThT assay for the assessment of physical stability; type: physicochemical; details: ThT buffer system A: 100 mM phosphate buffer pH 7.4; 3 mg/ml, 37° C.
Text: Low physical stability of a peptide solution may lead to amyloid fibril formation, which is observed as well-ordered, thread-like macromolecular structures in the sample, which eventually may lead to gel formation. Thioflavin T (ThT) is widely used to visualize and quantify the presence of misfolded protein aggregates [Biancalana et al., Biochim. Biophys. Acta 2010, 1804(7), 1405]. […] Enzymol. 1999, 309, 274]. The time course for fibril formation often follows the characteristic shape of a sigmoidal curve and can be separated into three regions: a lag phase, a fast growth phase, and a plateau phase.
The typical fibril formation process starts with the lag phase in which the amount of partially folded peptide turned into fibrils is not significant enough to be detected. The lag-time corresponds to the time the critical mass of the nucleus is built. Afterwards, a drastic elongation phase follows, and fibril concentration increases rapidly.
Investigations were carried out to determine fibrillation tendencies under stress conditions by shaking at 37° C. within Fluoroskan Ascent FL or Fluoroskan Ascent.
For the tests in Fluoroskan Ascent (FL), 200 μl sample were placed into a 96-well mictrotiter plate PS, flat bottom, Greiner Fluotrac No. 655076. Plates were sealed with Scotch Tape (Qiagen). Samples were stressed by continuous cycles of 10 sec shaking at 960 rpm and 50 sec rest period at 37° C. The kinetic was monitored by measuring fluorescence intensity every 20 min.
Peptides were diluted in a buffer system to a final concentration of 3 mg/ml. 20 μl of a 10.1 mM ThT solution in H2O were added to 2 ml of peptide solution to receive a final concentration of 100 μM ThT. For each sample eight replicates were tested.
ThT buffer system A) 100 mM phosphate buffer pH 7.4
ThT buffer system B) 100 mM phosphate buffer pH 7.4, 2.7 mg/ml m-cresol
Lag time in hours (h) in Thioflavin T (ThT) assay of peptide samples was determined in ThT buffer system A as described in Methods.

[2] = target: human GLP-1 receptor (hGLP-1R) (Homo sapiens, UniProt P43220); experiment: cAMP HTRF assay, HEK-293 cell line over-expressing human GLP-1 receptor; type: cell-based; details: HEK-293, cAMP, 0% HSA
Sequence of human GLP-1 receptor (hGLP-1R) (P43220 24-463): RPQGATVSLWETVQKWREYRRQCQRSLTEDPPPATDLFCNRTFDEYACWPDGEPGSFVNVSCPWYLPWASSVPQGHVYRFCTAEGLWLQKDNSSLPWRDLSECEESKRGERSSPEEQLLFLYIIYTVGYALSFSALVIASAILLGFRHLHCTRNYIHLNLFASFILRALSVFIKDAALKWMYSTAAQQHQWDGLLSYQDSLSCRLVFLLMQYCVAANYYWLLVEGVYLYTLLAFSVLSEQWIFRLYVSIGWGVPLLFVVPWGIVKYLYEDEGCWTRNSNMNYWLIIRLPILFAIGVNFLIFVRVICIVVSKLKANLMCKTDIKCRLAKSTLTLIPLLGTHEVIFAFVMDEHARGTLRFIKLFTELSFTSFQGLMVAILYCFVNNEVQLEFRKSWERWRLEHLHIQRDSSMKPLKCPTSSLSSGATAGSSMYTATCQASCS
Method in brief: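 Thawed HEK-293 cells over-expressing human GLP-1R (5000 cells/well) in HBSS/20 mM HEPES buffer, with 0.1% HSA where stated, incubated with compound for 30 min at room temperature. Generated cAMP quantified by HTRF.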

human GIP receptor = target: T1, human GIP receptor (Homo sapiens, UniProt P48546); experiment: cAMP HTRF assay in human adipocytes endogenously expressing the human GIP receptor; type: cell-based; details: for EC50: read-out: hGIPR EC50; for Emax: read-out: hGIPR Emax
T1 construct: human adipocytes endogenously expressing the human GIP receptor; host or cells: human preadipocytes (Lonza) differentiated to adipocytes
T1 sequence (P48546 22-466): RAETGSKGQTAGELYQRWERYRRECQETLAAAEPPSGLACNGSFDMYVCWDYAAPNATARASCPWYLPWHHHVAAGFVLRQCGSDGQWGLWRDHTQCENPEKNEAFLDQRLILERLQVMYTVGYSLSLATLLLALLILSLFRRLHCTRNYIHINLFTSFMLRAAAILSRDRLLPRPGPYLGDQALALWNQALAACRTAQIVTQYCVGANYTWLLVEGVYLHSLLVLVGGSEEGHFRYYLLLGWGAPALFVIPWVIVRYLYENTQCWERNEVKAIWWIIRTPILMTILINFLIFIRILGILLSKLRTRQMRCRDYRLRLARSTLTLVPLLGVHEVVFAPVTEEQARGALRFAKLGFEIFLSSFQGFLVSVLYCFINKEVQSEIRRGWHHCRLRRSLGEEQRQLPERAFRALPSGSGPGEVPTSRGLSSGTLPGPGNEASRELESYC
Description: For this, one vial of human preadipocytes (˜10^6 cells; Lonza) was thawed in a T-75 cell culture dish.
After 3 days, the cells were washed with PBS and 1.5 ml Trypsin, incubated for 4 min, then resuspended in medium, centrifugated for 10 min @ 300 rcf RT, resuspended again and distributed to four T-75 cell culture dishes.
After 5 days, the cells were washed with PBS and 1.5 ml Trypsin, incubated for 4 min, then resuspended in medium, centrifugated for 10 min @ 300 rcf RT, resuspended again and sawn in T-75 dishes (2.5×10^6 cells per dish) in 15 ml Differentiation medium each.
After 6 days of differentiation, 5000 cells per well were dispensed on a 96-well plate (#CLS3694 from Corning®, Sigma-Aldrich). For measurement of cAMP generation, 25 μL of test compound was added to each well of the 96-well plate, followed by incubation for 30 min at room temperature.
The cAMP generated following test compound stimulation was determined using a kit from Cisbio Corp. based on HTRF (Homogenous Time Resolved Fluorescence). The cAMP assay was performed according to manufacturer's instructions (Cisbio).
The cAMP content of cells was determined using a kit from Cisbio Corp. based on HTRF (Homogenous Time Resolved Fluorescence).

[3] = target: T2, human GIP receptor (hGIPR) (Homo sapiens, UniProt P48546); experiment: Binding assay, displacement of [125I]GIP from HEK-293 membranes expressing GIPR; details: [125I]GIP displacement
T2 sequence (P48546 22-466): T1 sequence (P48546 22-466)
Description: HEK-293 cells recombinantly over-expressing GIPR or GLP-1R were grown to 50% confluency, washed with warm 1×PBS (Gibco) and detached in HEPES/EDTA-buffer (100 mM HEPES pH 7.5, 5 mM EDTA). Cells were harvested by centrifugation at 4° C. and 3000×g and the pellets were stored at −80° C. until further processing.
After thawing on ice, pellets were resuspended in HEPES/EDTA-buffer and homogenized on ice for 1 min using Ultra-Turray T25. After subsequent sonification the cell debris was removed by centrifugation at 1000×g and 4° C. Supernatants were then ultra-centrifuged at 100000×g and 4° C. under vacuum for 30 min. Pellets were resuspended in HEPES/EDTA/NaCl-buffer (20 mM HEPES, 1 mM EDTA, 150 mM NaCl; add 1 Complete Mini Protease inhibitor cocktail to 10 ml buffer) and protein content was determined via BCA-Protein assay.

SMILES: CC[C@H](C)[C@H](NC(=O)[C@H](CCCNC(=N)N)NC(=O)[C@H](CC(=O)O)NC(=O)[C@H](CCCCNC(=O)CN(C)C(=O)CN(C)C(=O)CN(C)C(=O)CC[C@H](NC(=O)CCCCCCCCCCCCCCCCC(=O)O)C(=O)O)NC(=O)C(C)(C)NC(=O)[C@@H](NC(=O)[C@H](CO)NC(=O)[C@H](CC(C)C)NC(=O)[C@H](CC(=O)O)NC(=O)[C@H](CO)NC(=O)[C@@H](NC(=O)[C@H](Cc1ccccc1)NC(=O)[C@@H](NC(=O)CNC(=O)[C@H](CCC(=O)O)NC(=O)C(C)(C)NC(=O)[C@@H](N)Cc1ccc(O)cc1)[C@@H](C)O)[C@@H](C)CC)[C@@H](C)CC)C(=O)N[C@@H](Cc1c[nH]cn1)C(=O)N[C@@H](CCC(N)=O)C(=O)NC(C)(C)C(=O)N[C@@H](CCC(=O)O)C(=O)N[C@@H](Cc1ccccc1)C(=O)N[C@H](C(=O)N[C@@H](CCC(=O)O)C(=O)N[C@@H](Cc1c[nH]c2ccccc12)C(=O)N[C@@H](CC(C)C)C(=O)N[C@@H](CC(C)C)C(=O)N[C@@H](C)C(=O)N[C@@H](CCC(N)=O)C(=O)NCC(=O)N1CCC[C@H]1C(=O)N[C@@H](CO)C(=O)N[C@@H](CO)C(=O)NCC(=O)N[C@@H](C)C(=O)N1CCC[C@H]1C(=O)N1CCC[C@H]1C(=O)N1CCC[C@H]1C(=O)N[C@@H](CO)C(N)=O)[C@@H](C)CC [SEQ ID NO: 6, H2N-Y-Aib-E-G-T-F-I-S-D-I-S-I-Aib-K[{N-MeGly}3-gGlu-C18OH]-D-R-I-H-Q-Aib-E-F-I-E-W-I-L-A-Q-G-P-S-S-G-A-P-P-P-S-NH2] (H-Y[Aib]EGTFISDLSI[Aib]K([Sar-Sar-Sar-γGlu-C18 diacid])DRIHQ[Aib]EFIEWLLAQGPSSGAPPPS-NH2)
- Increase in FI [1]: no
- Lag time before increase [1]: >45 h
- EC50 [2]: > 10 nM
- EC50 (human GIP receptor): 0.3 nM
- Emax (human GIP receptor): 112%
- IC50 [3]: 0.1 nM

SMILES: CC[C@H](C)[C@H](NC(=O)[C@H](CCCNC(=N)N)NC(=O)[C@H](CC(=O)O)NC(=O)[C@H](CCCCNC(=O)COCCOCCNC(=O)COCCOCCNC(=O)CC[C@H](NC(=O)CCCCCCCCCCCCCCCCC(=O)O)C(=O)O)NC(=O)C(C)(C)NC(=O)[C@@H](NC(=O)[C@H](CO)NC(=O)[C@H](CC(C)C)NC(=O)[C@H](CC(=O)O)NC(=O)[C@H](CO)NC(=O)[C@@H](NC(=O)[C@H](Cc1ccccc1)NC(=O)[C@@H](NC(=O)CNC(=O)[C@H](CCC(=O)O)NC(=O)C(C)(C)NC(=O)[C@H](Cc1ccc(O)cc1)NC)[C@@H](C)O)[C@@H](C)CC)[C@@H](C)CC)C(=O)N[C@@H](Cc1c[nH]cn1)C(=O)N[C@@H](CCC(N)=O)C(=O)NC(C)(C)C(=O)N[C@@H](CCC(=O)O)C(=O)N[C@@H](Cc1ccccc1)C(=O)N[C@H](C(=O)N[C@@H](CCC(=O)O)C(=O)N[C@@H](Cc1c[nH]c2ccccc12)C(=O)N[C@@H](CC(C)C)C(=O)N[C@@H](CC(C)C)C(=O)N[C@@H](C)C(=O)N[C@@H](CCC(N)=O)C(=O)NCC(=O)N1CCC[C@H]1C(=O)N[C@@H](CO)C(=O)N[C@@H](CO)C(=O)NCC(=O)N[C@@H](C)C(=O)N1CCC[C@H]1C(=O)N1CCC[C@H]1C(=O)N1CCC[C@H]1C(=O)N[C@@H](CO)C(N)=O)[C@@H](C)CC [SEQ ID NO: 8, MeHN-Y-Aib-E-G-T-F-I-S-D-I-S-I-Aib-K[{AEEA}2-gGlu-C180H]-D-R-I-H-Q-Aib-E-F--E-W-I-L-A-Q-G-P-S-S-G-A-P-P-P-S-NH2] (H-[NMeY][Aib]EGTFISDLSI[Aib]K([AEEA-AEEA-γGlu-C18 diacid])DRIHQ[Aib]EFIEWLLAQGPSSGAPPPS-NH2)
- Increase in FI [1]: no
- Lag time before increase [1]: >45 h
- EC50 [2]: > 10 nM
- EC50 (human GIP receptor): 0.5 nM
- Emax (human GIP receptor): 116%
- IC50 [3]: 0.2 nM
